Laboratory results published in article PMC6152024 (Molecules : A Journal of Synthetic Chemistry and Natural …, 2017).
Like-named read-outs stand apart in the source and are kept apart here.

Experiments:
[1] = cited from earlier work
[2] = In vivo pharmacokinetic study of DCCTX and Gom A in rats; details: Sprague-Dawley, rat, plasma, iv, 300 mg/kg; for AUC(0-t): read-out: AUC0–8h; for MRT last: read-out: MRT0–8h
Experimental: Rats were randomly divided into five groups (groups 1−5, n = 6), respectively. To determine the short- and long-term effect of single-dose Gom A pretreatment on CYP3A metabolism of CTX, Gom A and CTX were administered to rats with different time intervals in groups 2−5. In brief, rats in group 1 (CTX alone group) were i.g. administered with saline (10 mL/kg, vehicle control), and rats in groups 2−5 were given Gom A (i.g.) at the dose of 20.8 mg/kg (50 μmol/kg). Rats in group 1 were intravenously (i.v.) administered with CTX (300 mg/kg) 0.5 h after saline administration. In groups 2–5, rats were given CTX (i.v.) 0.5, 6, 24 and 72 h after Gom A pretreatment, respectively. Mesna was injected (420 mg/kg, i.v.) 1 hour after CTX administration in all groups to prevent bladder injury in accordance with clinical practice.
Blood samples were collected from the postocular vein at 0.083, 0.25, 0.5, 1, 2, 3, 4, 6, 8, 12 and 24 h after CTX injection. Samples were transferred to heparin tubes and centrifuged at 5000 rpm for 15 min. Plasma was obtained and stored at −20 °C until required for further analysis.
UHPLC-MS/MS method (I): 6OH-Tes concentrations were analyzed according to the previous reports with slight modifications (Supplementary Figure S3). The terminated sample were centrifuged at 14,000 rpm for 10 min, 10 μL of each supernatant was injected into the UHPLC-MS/MS system for analysis. In general, an Agilent Elipse Plus 2.1 × 50 mm column packed with 1.8 µm C18 was applied. The column temperature was set as 30 °C at a flow rate of 0.3 mL/min. The mobile phase was consisted of aqueous 1% formic acid with the addition of 10 mM ammonium acetate solution (A) and methanol (B) with the gradient elution program set as follow: 5–50–80% B from 0–1–4 min. The ion transitions were m/z 305.0→269.0 for 6OH-Tes and m/z 181.0→111.0 for phenacetin (IS-I). UHPLC-MS method (II): DCCTX concentrations were determined using our previously developed UHPLC-MS/MS method (Supplementary Figure S4). For pharmacokinetic study, plasma samples were diluted 30-fold with plasma from drug-free rats. After vortexing for 2 min, 100 μL of each diluted sample was mixed with 400 μL acetonitrile (containing 6 ng/mL TNZ (IS-II), vortexed, and centrifuged at 14,000 rpm for 10 min. 100 μL supernatant of each sample was mixed with 400 μL aqueous solution containing 10% acetonitrile followed by a rough centrifugation. For HLMs inhibition study, samples were vortexed for 1 min after reaction termination, and the mixture was then centrifuged at 14,000 rpm for 10 min. After centrifugation, the obtained supernatant (5 μL) was injected into the UHPLC-MS/MS system, using methanol/10 mM ammonium acetate aqueous solution as the mobile phase at a flow rate of 0.25 mL/min. The ion transitions were set as m/z 199.2→78 for DCCTX and m/z 248.1→121.1 for TNZ (IS-II). UHPLC-MS/MS method (III): Gom A concentrations were determined using slightly modified LC/MS method which developed by our laboratory. Briefly, a 100 µL plasma sample was transferred to a 10 mL centrifuge tube with addition of 20 µL IS solution and 20 µL water/acetonitrile (90:10, v/v), vortexed for 30 s and then extracted using 3 mL methyl tertiary butyl ether. After extraction, the sample was centrifuged at 5000 rpm for 10 min. The organic layer was quantitatively transferred to a 5 mL glass tube and evaporated to dryness at 35 °C. Then the dried extract was reconstituted in 100 µL solvent (water–acetonitrile, 20:80, v/v) followed by injection of 10 µL aliquot into LC-MS/MS system. Separation was performed on a Zorbax SB-C18 reserved-phase column (100 mm × 2.1 mm i.d., 3.5 µm) with the mobile phase consisting of acetonitrile, methanol and water −0.1% formic acid (72:18:10, v/v/v) at a flow rate of 0.3 mL/min. The ion transitions were set as m/z 399→329 for Gom A and m/z 387.0→145.0 for bifendate (IS-III). […]

[3] = Group 1: CTX 300 mg/kg i.v. alone (saline 0.5 h before)
[4] = Group 2: CTX 300 mg/kg i.v. 0.5 h after Gom A 20.8 mg/kg i.g.
[5] = Group 3: CTX 300 mg/kg i.v. 6 h after Gom A 20.8 mg/kg i.g.
[6] = Group 4: CTX 300 mg/kg i.v. 24 h after Gom A 20.8 mg/kg i.g.
[7] = Group 5: CTX 300 mg/kg i.v. 72 h after Gom A 20.8 mg/kg i.g.

**Q.** Which “plasma protein binding rate” value [1] does the source give for `O=P1(N(CCCl)CCCl)NCCCO1` (stereo not drawn) [CTX, cyclophosphamide] here?
**A.** approximately 9%

**Q.** Which Cmax [2, 3] does the source give for `O=P1(NCCCl)NCCCO1` (stereo not drawn) [DCCTX, 2-dechloroethylcyclophosphamide] here?
**A.** 8600 ± 1300 ng/mL

**Q.** What about the Tmax [2, 3] of the same compound?
**A.** 2 ± 0.1 h

**Q.** What about the half-life [2, 3] of the same compound?
**A.** 2.2 ± 0.5 h

**Q.** And the AUC(0-t) [2, 3]?
**A.** 32500 ± 8400 ng·h/mL

**Q.** And the MRT last [2, 3]?
**A.** 3.3 ± 0.2 h

**Q.** And the Cmax [2, 4]?
**A.** 1900 ± 200 ng/mL

**Q.** What about the Tmax [2, 4] of the same compound?
**A.** 2.9 ± 0.6 h

**Q.** And the half-life [2, 4]?
**A.** 3.1 ± 0.9 h

**Q.** And the AUC(0-t) [2, 4]?
**A.** 8900 ± 300 ng·h/mL

**Q.** And the MRT last [2, 4]?
**A.** 3.8 ± 0.2 h

**Q.** What about the Cmax [2, 5] of the same compound?
**A.** 2600 ± 500 ng/mL

**Q.** What about the Tmax [2, 5] of the same compound?
**A.** 3.7 ± 0.8 h

**Q.** What about the half-life [2, 5] of the same compound?
**A.** 3.2 ± 0.8 h

**Q.** And the AUC(0-t) [2, 5]?
**A.** 11800 ± 2500 ng·h/mL

**Q.** And the MRT last [2, 5]?
**A.** 4.2 ± 0.1 h

**Q.** What about the Cmax [2, 6] of the same compound?
**A.** 16200 ± 1200 ng/mL

**Q.** And the Tmax [2, 6]?
**A.** 2 ± 0.1 h

**Q.** What about the half-life [2, 6] of the same compound?
**A.** 2 ± 0.4 h

**Q.** What about the AUC(0-t) [2, 6] of the same compound?
**A.** 65900 ± 12400 ng·h/mL

**Q.** What about the MRT last [2, 6] of the same compound?
**A.** 3.3 ± 0.2 h

**Q.** And the Cmax [2, 7]?
**A.** 20000 ± 3100 ng/mL

**Q.** What about the Tmax [2, 7] of the same compound?
**A.** 3.3 ± 0.5 h

**Q.** And the half-life [2, 7]?
**A.** 3.8 ± 1.2 h

**Q.** What about the AUC(0-t) [2, 7] of the same compound?
**A.** 79200 ± 19100 ng·h/mL

**Q.** And the MRT last [2, 7]?
**A.** 3.7 ± 0.2 h

**Q.** Which “plasma protein binding” value [1] does the source give for `C=CC[C@@H]1/C=C(\C)C[C@H](C)C[C@H](OC)[C@H]2O[C@@](O)(C(=O)C(=O)N3CCCC[C@H]3C(=O)O[C@H](/C(C)=C/[C@@H]3CC[C@@H](O)[C@H](OC)C3)[C@H](C)[C@@H](O)CC1=O)[C@H](C)C[C@@H]2OC` [Tacrolimus] here?
**A.** strongly bound to plasma protein
